Test [1] deals with methicillin-resistant Straphylococcus aureus MRSA 18-222. As to the kind of experiment: MIC by microbroth dilution, MRSA 18-222. The test is classed as cell-based. The following applies: for Minimum bacteriostatic concentration: strain MRSA 18-222. The protocol: (§1) The minimal inhibitory concentrations (MIC) of the compounds were determined by microbroth dilution method with gentamicin, cefazolin sodium and ceftriaxone sodium as positive control.
(§2) The experimental strains included methicillin-resistant Gram-positive bacteria: methicillin-resistant Straphylococcus aureus MRSA 18-222, 18-575; multiple drug-resistant Gram-negative bacteria: vancomycin-resistant Enterococci VRE 18-80, 18-94, multidrug-resistant Pseudomonas aeruginosa MDR-PA 18-1774, 18-202, carbapenem-resistant Acinetobacter baumannii CR-AB 18-183, 18-560. All the experimental strains were donated by Huashan Hospital affiliated to Fudan University (Institute of antibiotics, Fudan University) and used after routine identification.
(§3) Preparation of MHB medium: 20.0 g MHB medium was added to 1 L distilled water, boiled until completely dissolved, packed in conical bottles and sterilized at 121° C. for 15 min.
(§4) The experimental strain was cultured to the logarithmic growth phase: under aseptic condition, the experimental strain was inoculated into 100 mL MHB medium and incubated in a constant temperature and humidity incubator at 37° C. for 20-22 hours.
(§5) Preparation of storage solution: weighing the sample to be tested, dissolving it with 1% DMSO solution, preparing a storage solution with a concentration of 2560 μg/mL, weighing a positive reference substance, dissolving it with aseptic distilled water, and configuring a storage solution with a concentration of 2560 μg/mL.
(§6) Preparation of bacterial suspension: under aseptic condition, the experimental strains cultured to logarithmic growth phase were adjusted to 0.5 MCF turbidity standard with MHB medium and diluted according to 1:10, and the bacterial suspension with concentration of 10^6 CFU/mL was prepared for standby.
(§7) Dilution of storage solution and inoculation of experimental strain: under aseptic condition, the storage solution was diluted to 256 μg/mL solution. Taking a sterile 96-well plate, adding 200 μL MHB medium to the 12th well, and adding 100 μL MHB medium to each well. Adding 100 μL of positive control solution to the first well, mixing well, and taking 100 μL and discard. Adding 100 μL of the compound sample solution to the second well, mixing well, and then pipetting 100 μL to the third well. After mixing, pipetting 100 μL to the fourth well, and diluting to the 11th well in the same way. Finally, 100 μL was pipetted from the 11th well and discarded. The 12th hole was the growth control without drugs. The concentration of the positive reference substance was 128 μg/mL, the concentrations of the sample solution were 128, 64, […] respectively. Then, 100 μL of the prepared bacterial suspension was added to each well, so that the final concentration of the bacterial liquid in each well was 5×10^5 CFU/mL.
(§8) Incubation: Covering the 96-well plate inoculated with the experimental strains, and incubating in a constant temperature and humidity box at 37° C. for 20-22 hours.
In general terms: Dilution methods test growth across graded concentrations, often in twofold steps.

The subject of test [2] is vancomycin-resistant Enterococci VRE 18-80. Kind of test: MIC by microbroth dilution, VRE 18-80. The test is classed as cell-based. The following applies: strain VRE 18-80. The protocol: as §1, §2, §3, §4, §5, §6, §7, §8
In test [3] the test system is multidrug-resistant Pseudomonas aeruginosa MDR-PA 18-202. Kind of test: MIC by microbroth dilution, MDR-PA 18-202. As to conditions: strain MDR-PA 18-202. The test is classed as cell-based. As for the experimental part: as §1, §2, §3, §4, §5, §6, §7, §8
The subject of test [4] is carbapenem-resistant Acinetobacter baumannii CR-AB 18-560. Kind of test: MIC by microbroth dilution, CR-AB 18-560. As to conditions: strain CR-AB 18-560. In kind it is cell-based. As for the experimental part:
as §1, §2, §3, §4, §5, §6, §7, §8

Test [5] concerns multidrug-resistant Pseudomonas aeruginosa MDR-PA 18-174. Kind of test: MIC by microbroth dilution, MDR-PA 18-174. The test is classed as cell-based. The following applies: for Minimum bacteriostatic concentration: strain MDR-PA 18-174. As for the experimental part:
as §1, §2, §3, §4, §5, §6, §7, §8

Test [6] relates to methicillin-resistant Straphylococcus aureus MRSA 18-575. Kind of test: MIC by microbroth dilution, MRSA 18-575. The test is classed as cell-based. The following applies: strain MRSA 18-575. As for the experimental part:
as §1, §2, §3, §4, §5, §6, §7, §8

Test [7] deals with vancomycin-resistant Enterococci VRE 18-94. Kind of test: MIC by microbroth dilution, VRE 18-94. In kind it is cell-based. The following applies: strain VRE 18-94. The protocol: as §1, §2, §3, §4, §5, §6, §7, §8
For test [8], the system named is carbapenem-resistant Acinetobacter baumannii CR-AB 18-183. As to the kind of experiment: MIC by microbroth dilution, CR-AB 18-183. The test is classed as cell-based. The following applies: strain CR-AB 18-183. As for the experimental part:
as §1, §2, §3, §4, §5, §6, §7, §8

For test [9], the system named is drug-resistant bacteria. Kind of test: Antibacterial activity test, summary over all experimental strains. The test is classed as cell-based. As to conditions: text summary of FIGS. 2-3 and Table 4. As for the experimental part: as §1, §2, §3
The experimental strain was cultured to the logarithmic growth phase: under aseptic condition, the experimental strain was inoculated into 100 mL MHB medium and incubated in a constant temperature and humidity incubator at 37° C. for 20-22 hours. […]

Test [10] can be described thus: DPPH radical scavenging activity assay. The following applies: for DPPH clearance rate: n = 3. The protocol:
The antioxidant activity of the hydroxytyrosol cinnamic acid ester was measured by a DPPH radical scavenging activity assay. 2,2-Diphenyl-1-picryl hydrazyl (DPPH) is an organic compound composed of a stable organic radical. In the DPPH molecule, due to the presence of multiple electron-withdrawing —NO2 and large π bonds of the benzene ring, nitrogen free radical is stabilized. Its methanol solution is purple and has a maximum absorption peak at 517 nm. After the addition of an antioxidant, DPPH captures an electron to be paired with the free electron, and the purple fades and turns into a yellow substance. The absorption at 517 nm disappears, and the degree of fading is quantitatively related to the number of electrons it captures. Based on this principle, a spectrophotometer is used to detect the change of the absorbance of the DPPH radical and the sample solution, and the ability of the sample to provide hydrogen atoms and scavenge free radicals can be measured. measuring exact amount of 2,2-diphenyl-1-picryl hydrazyl (DPPH) and dissolving in toluene to prepare a 0.2 mmoL/L DPPH solution, stored at 0° C. in dark. Vc (positive control), hydroxytyrosol cinnamic acid ester (sample), hydroxytyrosol (control) and cinnamic acid (control). The sample solution was subjected to gradient dilution with toluene, and three sets of controls were separately dissolved in a test tube with a certain amount of toluene to prepare the same concentration gradient as the sample. Sample liquid absorbance measurement: Take 2 mL of sample solution (Table 1 Vc, B, C), add 2 mL of DPPH solution with concentration of 2×10^−4 moL/L, mix and react in the dark at room temperature for 30 min, adjust to zero with toluene, and measure at 517 nm. The absorbance Ai was simultaneously measured for the absorbance Aj of 2 mL of toluene mixed with 2 mL of the sample solution and the absorbance Ao of 2 mL of DPPH solution mixed with 2 mL of toluene (The experimental results are shown in Table 2). Clearance calculation: Clearance Rate (%)=[1−(Ai−Aj)/Ao]*100%

≈ marks a conversion by molar mass, not a printed value.

As to `Cc1nnc(SCC2=C(C(=O)O)N3C(=O)[C@@H](NC(=O)Cn4cnnn4)[C@H]3SC2)s1` [Cefazolin sodium], the Minimum bacteriostatic concentration in test [1] was above 128 µg/mL; in test [2] it was 32 µg/mL; in test [3], 128 µg/mL; in test [4], above 128 µg/mL; in [5], 8 µg/mL; in test [6], above 128 µg/mL. Besides, the Minimum bacteriostatic concentration in test [7] and in test [8] was above 128 µg/mL each time.

As to `CO/N=C(\C(=O)N[C@@H]1C(=O)N2C(C(=O)O)=C(CSc3nc(=O)c(=O)[nH]n3C)CS[C@H]12)c1csc(N)n1` [Ceftriaxone sodium], the Minimum bacteriostatic concentration in [1] was above 128 µg/mL; in test [2], 8 µg/mL; in test [3] it was 16 µg/mL; in [4] it was above 128 µg/mL; in test [5], 128 µg/mL; in test [6], above 128 µg/mL. In addition, the Minimum bacteriostatic concentration in test [7] and in test [8] was above 128 µg/mL throughout.

Consider `O=C(O)C=Cc1ccccc1` [Cinnamic acid], for which the Minimum bacteriostatic concentration in [1], in [2], in test [3], in test [4], in test [5] and in [6] was above 128 µg/mL throughout. The Minimum bacteriostatic concentration in test [7] and in [8] was above 128 µg/mL each time. Further, in test [9], the “inhibitory effect on drug-resistant bacteria” value is recorded as “no inhibitory effect”. The DPPH clearance rate amounted to 6.45% in test [10] (1.76 ppm); 8.20% in test [10] (8.80 ppm); 14.52% in test [10] (21.12 ppm); 20.33% in [10] (42.24 ppm); 31.75% in test [10] (79.20 ppm); 38.62% in [10] (112.64 ppm). Moreover, the DPPH clearance rate in test [10] (281.60 ppm) amounted to 54.12%; in test [10] (492.80 ppm), 59.60%; in test [10] (792.00 ppm), 70.53%; in test [10] (915.20 ppm), 71.89%.

For orientation: MIC means the least concentration at which growth counts as inhibited. The low end stands for a more susceptible organism, the high end for a less susceptible organism. As to `O=C(/C=C\c1ccccc1)OCCc1ccc(O)c(O)c1` [Hydroxytyrosol cinnamic acid ester, (Z)-3,4-Dihydroxyphenethyl 3-Phenylacrylate], the minimum inhibitory concentration (MIC) in test [1] (Staphylococcus aureus, multi-drug resistant Straphylococcus aureus MRSA (text summary, strain number not given)) is 32 µg/mL (≈ 113 µM); in [5] (multi-drug resistant Pseudomonas aeruginosa MDR-PA (text summary, strain number not given)), 64 µg/mL (≈ 225 µM). The Minimum bacteriostatic concentration in test [1] is 32 µg/mL; in test [2], above 128 µg/mL; in [3] it was above 128 µg/mL; in test [4], above 128 µg/mL; in test [5], 64 µg/mL; in test [6], above 128 µg/mL. In addition, the Minimum bacteriostatic concentration in test [7] and in test [8] was above 128 µg/mL in each case. Further, the antioxidant activity entry in [10] is recorded as “excellent antioxidant activity”. Also, the DPPH clearance rate is 0.56% in test [10] (1.76 ppm); 16.52% in [10] (8.80 ppm); 31.75% in [10] (21.12 ppm); 43.52% in test [10] (42.24 ppm); 55.11% in test [10] (79.20 ppm); 68.53% in [10] (112.64 ppm). Moreover, the DPPH clearance rate is listed as 76.22% in test [10] (281.60 ppm), 80.95% in [10] (492.80 ppm), 84.32% in test [10] (792.00 ppm) and 85.03% in test [10] (915.20 ppm).

As to `OCCc1ccc(O)c(O)c1` [Hydroxytyrosol], the Minimum bacteriostatic concentration in [1], in [2], in test [3], in [4], in test [5] and in [6] was above 128 µg/mL throughout. The Minimum bacteriostatic concentration in [7] and in [8] was above 128 µg/mL in each case. In addition, the “inhibitory effect on drug-resistant bacteria” value in test [9] is “no inhibitory effect”.

Take `O=C1O[C@H]([C@@H](O)CO)C(O)=C1O` [Vc]: the DPPH clearance rate in [10] (1.76 ppm) is recorded as 23.16%; in test [10] (8.80 ppm), 33.47%; in [10] (21.12 ppm), 79.63%; in test [10] (42.24 ppm), 89.55%; in test [10] (79.20 ppm) it was 97.42%; in test [10] (112.64 ppm), 97.53%. The DPPH clearance rate is given as 98.29% in test [10] (281.60 ppm), 99.06% in test [10] (492.80 ppm), 99.10% in test [10] (792.00 ppm) and 99.28% in test [10] (915.20 ppm).

Turning to Gentamicin, the Minimum bacteriostatic concentration is 128 µg/mL in test [1]; 0.0625 µg/mL in test [2]; 0.0625 µg/mL in test [3]; above 128 µg/mL in [4]; 0.0625 µg/mL in test [5]; 2 µg/mL in [6]. Also, the Minimum bacteriostatic concentration in [7] and in test [8] was above 128 µg/mL throughout.

Values taken from US11427526B2, “Method of preparing hydroxytyrosol cinnamic acid ester with antioxidant and antibacterial activities” (XI'AN KANGYUANSHENG BIOMEDICAL TECHNOLOGY CO., LTD., priority 2020, dated 2022).
